Tested on: anti-aldicarb monoclonal antibody
Assay: icELISA cross-reaction test of the monoclonal antibody
Type: binding, mouse
Settings: for Cross-reaction rate: IC50 of aldicarb relative to IC50 of inhibitor; for IC50: icELISA, inhibitor against anti-aldicarb monoclonal antibody
Source text: A mouse monoclonal antibody subtype identification ELISA kit was used to identify the antibody subtype. Indirect competitive ELISA (icELISA) was used to determine the 50% inhibitory mass concentration (IC50) of the monoclonal antibody against aldicarb, and IC50 was used to measure the sensitivity of the monoclonal antibody ([28]). Cross-reaction tests were used to determine specificity, in which aldicarb sulfone, aldicarb sulfoxide, thiofanox, oxamyl, methomyl, metolcarb, isoprocarb, and carbofuran were selected as inhibitors. The IC50 of each inhibitor was determined by icELISA, and the IC50 of the monoclonal antibody against aldicarb and the IC50 of the inhibitor were taken as the cross-reaction rate.
Antibody specificity is the ability of the antibody to bind to a specific antigen in preference over antigen analogs. The cross-reactivity rate is often used as an evaluation standard because an inverse relationship exists between the cross-reactivity rate and the specificity of the antibody. In this study, we selected aldicarb sulfone, aldicarb sulfoxide, thiofanox, oxamyl, methomyl, metolcarb, isoprocarb, and carbofuran, with chemical structures similar to that of aldicarb, for the specificity analysis.

SMILES	Cross-reaction rate [%]	IC50 [µg/mL]	further results
CNC(=O)O/N=C/C(C)(C)S(C)(=O)=O [Aldicarb sulfone]	<0.978	>0.042	Cross-reaction rate (listed as aldicarb sulfone): < 1%
CNC(=O)O/N=C/C(C)(C)[S+](C)[O-] (stereo not shown) [Aldicarb sulfoxide]	<0.978	>0.042	Cross-reaction rate (listed as aldicarb sulfoxide): < 1%
CNC(=O)O/N=C/C(C)(C)SC [Aldicarb, [(E)-(2-methyl-2-methylsulfanylpropylidene)amino]N-methylcarbamate]	100		
CNC(=O)Oc1cccc2c1OC(C)(C)C2 [Carbofuran]	<0.978	>0.042	Cross-reaction rate (listed as carbofuran): < 1%
CNC(=O)Oc1ccccc1C(C)C [Isoprocarb]	<0.978	>0.042	Cross-reaction rate (listed as isoprocarb): < 1%
CNC(=O)ON=C(C)SC [Methomyl]	<0.978	>0.042	Cross-reaction rate (listed as methomyl): < 1%
CNC(=O)Oc1cccc(C)c1 [Metolcarb]	<0.978	>0.042	Cross-reaction rate (listed as metolcarb): < 1%
CNC(=O)O/N=C(\SC)C(=O)N(C)C [Oxamyl]	<0.978	>0.042	Cross-reaction rate (listed as oxamyl): < 1%
CNC(=O)ON=C(CSC)C(C)(C)C [Thiofanox]	<0.978	>0.042	Cross-reaction rate (listed as thiofanox): < 1%
